Assay [1] concerns the target T1, P2X7 (Homo sapiens (Human), UniProt Q99572). The assay is described as follows: P2X7 antagonism in human whole blood, IL-1β release (LPS + Bz-ATP, ELISA). The note with it: LPS 30 ng/ml + Bz-ATP 1 mM; for IC50: Human Whole Blood IC50 (μM); for pIC50: read-out: Human Whole Blood IC50. It counts as cell-based. As for the experimental part: (§1) P2X7 Antagonism in Human Peripheral Blood Mononuclear Cells (PBMCs) and Human Whole Blood.
(§2) Human blood was collected using a blood donor program. PBMCs were isolated from blood using a Ficoll density gradient technique. Briefly, blood was laid on Ficoll solution and centrifuged at ROOM TEMPERATURE for 20 minutes at 2000 rpm. The buffy layer (between red blood cells and plasma) was carefully collected by aspiration, washed with PBS and centrifuged again at 1500 rpm for 15 minutes. The resulting cell pellet was washed and plated on 96 well-plates for experiments. For the Human Whole Blood experiments, 150 μl of human blood was plated on 96 well-plates. Lipopolysaccharide (LPS) (30 ng/ml) was added to each well and incubated for 1 hour. Test compounds were then added and incubated for 30 minutes. The P2X7 agonist, 2′(3′)-O-(4-benzoylbenzoyl) adenosine 5′-triphosphate (Bz-ATP) was then added at a final concentration of 0.5 mM (PBMC) or 1 mM (blood). Cells were incubated for an additional 1.5 hours. At that point, supernatant was collected and stored for IL-1β assay using manufacturer's protocol for enzyme-linked immunosorbant assay (ELISA). Data was expressed as percent control, where control is defined as the difference in IL-1β release in LPS+Bz-ATP samples and LPS only samples. Data was plotted as response (% control) versus concentration to generate IC50 values. […] Data are analyzed and graphed on Graphpad Prism 5. For analysis, each concentration point is averaged from triplicate values and the averaged values are plotted on Graphpad Prism. The IC50 for each compound is then uploaded into 3DX.
On the technique in general: ELISA stands for enzyme-linked immunosorbent assay.

For assay [2], the target named is T1, P2X7. Description: Radioligand binding ([3H]A-804598) to membranes of human P2X7-1321N1 cells. The conditions noted are these: human P2X7-1321N1 membranes, tracer tritiated A-804598, 1 hour at 4° C. As for the experimental part: P2X7 Antagonism in Recombinant Human P2X7 Cells or Recombinant Rat P2X7 Cells:
human or rat P2X7-1321N1 cells were collected and frozen @ −80° C. On the day of the experiment, cell membrane preparations were made according to standard published methods. […] The compound can be prepared as described in the literature. […] The assay was terminated by filtration (GF/B filters pre-soaked with 0.3% PEI) and washed with washing buffer (Tris-HCl 50 mM). The IC50 generated in the binding assay was corrected for tracer concentration and affinity of the tracer to derive at the affinity (Ki) of the test compounds. The data are presented in Table 2 under the headings: P2X7 human Ki (μM) and P2X7 rat Ki (μM). Data are analyzed and graphed on Graphpad Prism 5. For analysis, each concentration point is averaged from triplicate values and the averaged values are plotted on Graphpad Prism.

A further assay addresses rat P2X7 (Rattus norvegicus (Rat), UniProt Q64663). The assay is described as follows: P2X7 antagonism in recombinant rat P2X7 cells (column headed P2X7 Rat IC50). The format is binding. As for the experimental part: The in vitro affinity of the compounds of the invention for the rat and human P2X7 receptor was determined using a human peripheral blood mononuclear cells (PBMCs), a human whole blood assay, a Ca^2+ flux and radioligand binding assay in recombinant human P2X7 cells and recombinant rat P2X7 cells. […] The data represented in Tables 2 may represent a value from a single determination or when the experiment was run more than once, the data represents the average from between 2-12 runs.
P2X7 Antagonism in Recombinant Human P2X7 Cells or Recombinant Rat P2X7 Cells: […]

In assay [3] the target is T1, P2X7. The assay is described as follows: P2X7 antagonism in human peripheral blood mononuclear cells (PBMCs), IL-1β release (LPS + Bz-ATP, ELISA). It counts as cell-based. The conditions noted are these: P2X7, 10 μM test compound, LPS 30 ng/ml + Bz-ATP 0.5 mM, read-out: PBMC @10 μM (% control). As for the experimental part:
as §1, §2

These results are taken from patent US10150766B2, “P2X7 modulators” (Jansssen Pharmaceutica NV, priority 2014, dated 2018).

The term IC50 denotes the concentration at which inhibition is half-maximal. One may read the pKi as the Ki on a negative log10 scale, so that one unit is a factor of ten. High values mean a low Ki, low ones a high Ki. A word on the pIC50: it is the IC50 on a negative log10 scale, so that one unit is a factor of ten.

pIC50, pKi: −log10 of the molar value. Read-outs that look alike come from different tables or passages of the source.

T1 sequence (Q99572 whole entry): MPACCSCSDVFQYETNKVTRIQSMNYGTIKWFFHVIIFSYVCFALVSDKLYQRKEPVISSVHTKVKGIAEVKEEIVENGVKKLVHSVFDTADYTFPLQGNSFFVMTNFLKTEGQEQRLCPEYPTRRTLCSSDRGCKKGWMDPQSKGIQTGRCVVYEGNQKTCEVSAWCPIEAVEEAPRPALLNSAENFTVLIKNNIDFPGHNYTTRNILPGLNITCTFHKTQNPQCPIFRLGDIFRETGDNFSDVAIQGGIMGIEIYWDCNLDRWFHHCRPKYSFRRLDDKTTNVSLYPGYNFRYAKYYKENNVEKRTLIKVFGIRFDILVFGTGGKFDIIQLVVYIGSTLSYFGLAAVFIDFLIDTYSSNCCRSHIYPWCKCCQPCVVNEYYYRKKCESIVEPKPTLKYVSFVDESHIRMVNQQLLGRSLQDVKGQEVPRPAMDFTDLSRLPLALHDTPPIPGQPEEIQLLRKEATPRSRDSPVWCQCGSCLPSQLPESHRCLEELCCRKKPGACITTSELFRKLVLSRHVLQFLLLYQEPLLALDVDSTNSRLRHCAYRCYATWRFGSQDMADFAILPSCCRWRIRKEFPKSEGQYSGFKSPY
Sequence of rat P2X7 (Q64663 whole entry): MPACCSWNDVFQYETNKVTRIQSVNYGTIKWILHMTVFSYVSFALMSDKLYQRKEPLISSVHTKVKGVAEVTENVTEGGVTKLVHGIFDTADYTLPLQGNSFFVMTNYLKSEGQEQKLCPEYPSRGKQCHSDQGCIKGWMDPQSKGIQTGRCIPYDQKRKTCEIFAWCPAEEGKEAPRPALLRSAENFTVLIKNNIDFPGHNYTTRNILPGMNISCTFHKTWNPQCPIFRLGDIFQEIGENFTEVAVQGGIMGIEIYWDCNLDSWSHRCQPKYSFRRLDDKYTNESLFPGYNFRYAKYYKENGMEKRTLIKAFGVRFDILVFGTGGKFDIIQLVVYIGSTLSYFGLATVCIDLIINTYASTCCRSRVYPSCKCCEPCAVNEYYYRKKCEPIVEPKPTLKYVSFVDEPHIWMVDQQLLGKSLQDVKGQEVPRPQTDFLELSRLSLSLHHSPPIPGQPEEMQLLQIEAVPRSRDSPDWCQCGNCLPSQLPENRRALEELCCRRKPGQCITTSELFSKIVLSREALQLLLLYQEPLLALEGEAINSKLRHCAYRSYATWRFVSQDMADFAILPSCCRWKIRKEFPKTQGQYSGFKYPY

In the case of `Cc1nc(-c2ccc(F)cc2)c2c(n1)[C@H]1CCC[C@@H](C2)N1C(=O)c1cccc(Cl)c1Cl` [Example 55, (2,3-dichlorophenyl)((6S,10R)-4-(4-fluorophenyl)-2-methyl-5,6,7,8,9,10-hexahydro-6,10-epiminocycloocta[d]pyrimidin-11-yl)methanone], the IC50 at P2X7 [1] was 0.037 µM. At P2X7 [2], this compound had a pKi of 6.98. For the same compound, at rat P2X7, the pIC50 was 6.66. For the same compound, the remaining activity at 10 µM at P2X7 [3] was -1.6%.
For `Cc1nc(-c2ncccn2)c2c(n1)[C@H]1CCC[C@@H](C2)N1C(=O)c1ccnc(C(F)(F)F)c1Cl` [Example 42, (3-chloro-2-(trifluoromethyl)pyridin-4-yl)((6S,10R)-2-methyl-4-(pyrimidin-2-yl)-5,6,7,8,9,10-hexahydro-6,10-epiminocycloocta[d]pyrimidin-11-yl)methanone], the results for the pIC50 at P2X7 [1] and on rat P2X7 were 6.97 and 6.80, respectively. Besides, the pKi on P2X7 [2] was 6.90. For the same compound, the remaining activity at 10 µM at P2X7 [3] was -16.1%.
On to `Cc1nc(-c2ccnn2C)c2c(n1)[C@H]1CCC[C@@H](C2)N1C(=O)c1cccc(C(F)(F)F)c1Cl` [Example 56, (2-chloro-3-(trifluoromethyl)phenyl)((6S,10R)-2-methyl-4-(1-methyl-1H-pyrazol-5-yl)-5,6,7,8,9,10-hexahydro-6,10-epiminocycloocta[d]pyrimidin-11-yl)methanone], for which the IC50 on P2X7 [1] worked out at 0.048 µM. The same compound had a pKi at P2X7 [2] of 7.00. In addition, the pIC50 on rat P2X7 is 7.94. Further, on P2X7 [3], the remaining activity at 10 µM was -2.9%.
Regarding `Cc1nc(-c2cnccn2)c2c(n1)[C@H]1CCC[C@@H](C2)N1C(=O)c1ccc(Cl)c(F)c1Cl` [Example 47, (2,4-dichloro-3-fluorophenyl)((6S,10R)-2-methyl-4-(pyrazin-2-yl)-5,6,7,8,9,10-hexahydro-6,10-epiminocycloocta[d]pyrimidin-11-yl)methanone], the IC50 at P2X7 [1] amounted to 0.04 µM. At P2X7 [2], the pKi was 7.40. Besides, on rat P2X7, the pIC50 is 6.61. Moreover, the remaining activity at 10 µM at P2X7 [3] is -3.4%.
In the case of `Cc1nc(-c2ccn[nH]2)c2c(n1)[C@H]1CCC[C@@H](C2)N1C(=O)c1ccnc(C(F)(F)F)c1Cl` [Example 24, (3-chloro-2-(trifluoromethyl)pyridin-4-yl)((6S,10R)-2-methyl-4-(1H-pyrazol-5-yl)-5,6,7,8,9,10-hexahydro-6,10-epiminocycloocta[d]pyrimidin-11-yl)methanone], the IC50 at P2X7 [1] was 0.038 µM. Besides, the pKi on P2X7 [2] is 6.90. In addition, the pIC50 at rat P2X7 was 7.72. Moreover, at P2X7 [3], the remaining activity at 10 µM worked out at 2.4%.
Take `Cc1nc(-c2ccn[nH]2)c2c(n1)C1CCCC(C2)N1C(=O)c1cccc(Cl)c1Cl` (stereo not shown) [Example 1, (2,3-dichlorophenyl)(2-methyl-4-(1H-pyrazol-5-yl)-5,6,7,8,9,10-hexahydro-6,10-epiminocycloocta[d]pyrimidin-11-yl)methanone]: the IC50 at P2X7 [1] came out at 0.027 µM. Moreover, at P2X7 [2], the pKi was 7.50. Besides, the pIC50 at rat P2X7 is 7.00. Moreover, the remaining activity at 10 µM at P2X7 [3] turned out to be 3.3%.
`Cc1nc(-c2ccc(F)cc2)c2c(n1)[C@H]1CCC[C@@H](C2)N1C(=O)c1cccc(C(F)(F)F)c1C` [Example 53, ((6S,10R)-4-(4-fluorophenyl)-2-methyl-5,6,7,8,9,10-hexahydro-6,10-epiminocycloocta[d]pyrimidin-11-yl)(2-methyl-3-(trifluoromethyl)phenyl)methanone]: the pIC50 at P2X7 [1] was 6.88; at rat P2X7, 6.72. Moreover, at P2X7 [2], the pKi was 7.50. In addition, on P2X7 [3], the remaining activity at 10 µM turned out to be 0%.
As to `Cc1nc(-c2ccn[nH]2)c2c(n1)[C@@H]1CCC[C@H](C2)N1C(=O)c1ccc(Cl)c(F)c1Cl` [Example 10, (2,4-dichloro-3-fluorophenyl)((6R,10S)-2-methyl-4-(1H-pyrazol-5-yl)-5,6,7,8,9,10-hexahydro-6,10-epiminocycloocta[d]pyrimidin-11-yl)methanone], the IC50 on P2X7 [1] stood at 0.459 µM. Besides, the pKi at P2X7 [2] was 6.20. Also, the remaining activity at 10 µM on P2X7 [3] stood at 22.4%.
